{
  "source": "ChEMBL document CHEMBL1149238",
  "about": "“A novel mixed-ligand antimycobacterial dimeric copper complex of ciprofloxacin and phenanthroline” (2004)",
  "test_system": "Mycolicibacterium smegmatis",
  "experiment": "Antimycobacterial activity was determined against Mycobacterium smegmatis",
  "type": "functional",
  "data": [
    {"smiles": "O=C(O)c1cn(C2CC2)c2cc(N3CCNCC3)c(F)cc2c1=O", "note": "[CIPROFLOXACIN]", "values": [
      {"measurement": "Log of inhibitory zone", "result": 1.28, "unit": "log mm"}
    ]}
  ]
}
